Results from US20230399341A1, “7-PHENYL SUBSTITUTED 2-AMINOQUINAZOLINE INHIBITORS OF HPK1” (MERCK SHARP & DOHME LLC, priority 2020, published 2023).

Target: T1, Human HPK1, catalytic domain (Homo sapiens, UniProt Q92918)
T1 sequence (Q92918 1-346): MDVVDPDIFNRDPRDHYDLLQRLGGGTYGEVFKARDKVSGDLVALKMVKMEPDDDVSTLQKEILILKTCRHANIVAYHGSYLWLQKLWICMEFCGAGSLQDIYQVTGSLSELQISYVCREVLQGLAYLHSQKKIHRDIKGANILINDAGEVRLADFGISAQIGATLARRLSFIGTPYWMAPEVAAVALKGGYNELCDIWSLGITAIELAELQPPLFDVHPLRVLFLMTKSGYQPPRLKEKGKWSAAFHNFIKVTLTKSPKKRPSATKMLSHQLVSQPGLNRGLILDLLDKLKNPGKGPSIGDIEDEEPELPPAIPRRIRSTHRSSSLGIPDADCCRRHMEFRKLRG
Assay: HPK1-SLP76 TR-FRET Assay
Type: biochemical
Conditions: 75 pM HPK1, ATP 10 uM, SLP76 10 nM, 30 min pre-incubation, 60 min reaction

Compound	IC50 [nM]
CNC(=O)C1CCc2cc(Nc3ncc4c(N)c(F)c(-c5cnc6c(c5C)NCCO6)cc4n3)ccc21 (stereo not shown) [Compound 2-188, 5-{[5-amino-6-fluoro-7-(8-methyl-2,3-dihydro-1H-pyrido[2,3-b][1,4]oxazin-7-yl)quinazolin-2-yl]amino}-N-methyl-2,3-dihydro-1H-indene-1-carboxamide]	0.0806
COc1cc(F)ccc1Nc1ncc2c(N)c(F)c(-c3cnc4c(c3C)NCCO4)cc2n1 [Compound 2-69, 6-fluoro-N~2~-(4-fluoro-2-methoxyphenyl)-7-(8-methyl-2,3-dihydro-1H-pyrido[2,3-b][1,4]oxazin-7-yl)quinazoline-2,5-diamine]	0.51
CNC(=O)C(F)(F)c1ccc(Nc2ncc3c(N)c(F)c(-c4cnc5c(c4C)NCCO5)cc3n2)cc1 [Compound 2-186, 2-(4-{[5-amino-6-fluoro-7-(8-methyl-2,3-dihydro-1H-pyrido[2,3-b][1,4]oxazin-7-yl)quinazolin-2-yl]amino}phenyl)-2,2-difluoro-N-methylacetamide]	0.136
COc1cc2c(cc1Nc1ncc3ccc(Nc4cc(S(C)(=O)=O)ccc4F)cc3n1)CN(C)CC2 [Compound 3-36, N~7~-[2-fluoro-5-(methyl-sulfonyl)phenyl]-N~2~-(6-methoxy-2-methyl-1,2,3,4-tetra-hydroisoquinolin-7-yl)quinaz-oline-2,7-diamine]	4.17
COc1cc2c(cc1Nc1ncc3c(N)c(F)c(-c4cnc5c(c4C)NCCO5)c(Cl)c3n1)CN(C(C)C)CC2 [Compound 2-106, (+ or −)-8-chloro-6-fluoro-N2-(2-isopropyl-6-methoxy-1,2,3,4-tetrahydroisoquinolin-7-yl)-7-(8-methyl-2,3-dihydro-1H-pyrido[2,3-b][1,4]oxazin-7-yl)quinazoline-2,5-diamine]	5.76
COc1cc2c(cc1Nc1ncc3ccc(Nc4cccc(C(=O)N(C)C)c4)cc3n1)CN(C)CC2 [Compound 3-34, 3-({2-[(6-methoxy-2-methyl-1,2,3,4-tetrahydroisoquinolin-7-yl)amino]quinazolin-7-yl}-amino)-N,N-dimethylbenzamide]	81.5
Cc1c(-c2cc3nc(Nc4ccc5c(c4)CCS5(=O)=O)ncc3c(N)c2F)cnc2c1NCCO2 [Compound 2-43, 5-{[5-amino-6-fluoro-7-(8-methyl-2,3-dihydro-1H-pyrido[2,3-b][1,4]oxazin-7-yl)quinazolin-2-yl]amino}-2,3-dihydro-1H-1-benzothiophene-1,1-dione]	0.0849
COc1nc(C2(C#N)CC2)ccc1Nc1ncc2c(N)c(F)c(-c3cnc4c(c3C)NCCO4)cc2n1 [Compound 2-68, 1-(5-{[5-amino-6-fluoro-7-(8-methyl-2,3-dihydro-1H-pyrido[2,3-b][1,4]oxazin-7-yl)quinazolin-2-yl]amino}-6-methoxypyridin-2-yl)cyclopropane-1-carbonitrile]	14.3
COc1cc2c(cc1Nc1ncc3ccc(N4CC(C(N)=O)C4)cc3n1)CN(C)CC2 [Compound 3-53, 1-{2-[(6-methoxy-2-methyl-1,2,3,4-tetrahydroisoquinolin-7-yl)amino]quinazolin-7-yl}-azetidine-3-carboxamide]	669
Cc1c(-c2cc3nc(Nc4cncnc4)ncc3c(N)c2F)cnc2c1NCCO2 [Compound 2-19, 6-fluoro-7-(8-methyl-2,3-dihydro-1H-pyrido[2,3-b][1,4]oxazin-7-yl)-N~2~- (pyrimidin-5-yl)quinazoline-2,5-diamine]	1.34
CNCC1CN(c2ccc3cnc(Nc4cc5c(cc4OC)CCN(C)C5)nc3c2)C(=O)O1 (racemic) [Compound 3-12, (S and R)-3-12-[(6-methoxy-2-methyl-1,2,3,4-tetrahydroiso-quinolin-7-yl)amino]quinazolin-7-yl}-5-[(methylamino)methyl]-1,3-oxazolidin-2-one]	94.2
COc1cc2c(cc1Nc1ncc3ccc(N4C(=O)OC[C@H]4C(C)C)cc3n1)CN(C)CC2 [Compound 3-10, (4R)-3-{2-[(6-methoxy-2-meth-yl-1,2,3,4-tetrahydroisoquinolin-7-yl)amino]quinazolin-7-yl}-4-(propan-2-yl)-1,3-oxazolidin-2-one]	107
Cc1c(-c2c(F)c(N)c3cnc(Nc4ccc(CC(C)(C)O)cc4)nc3c2Cl)cnc2c1NCCO2 [Compound 2-167, 1-(4-{[5-amino-8-chloro-6-fluoro-7-(8-methyl-2,3-dihydro-1H-pyrido[2,3-b][1,4]oxazin-7-yl)quinazolin-2-yl]amino}phenyl)-2-methylpropan-2-ol]	70.5
COc1cc2c(cc1Nc1ncc3c(N)c(F)c(-c4ccccc4-c4ccnn4C)cc3n1)CN(C)CC2 [Compound 2-65, 6-fluoro-N~2~-(6-methoxy-2-methyl-1,2,3,4-tetrahydroisoquinolin-7-yl)-7-[2-(1-methyl-1H-pyrazol-5-yl)phenyl]quinazoline-2,5-diamine]	16.6
Cc1c(-c2cc3nc(Nc4ccc5c(c4)CN(C)CCC5)ncc3c(N)c2F)cnc2c1NCCO2 [Compound 2-117, 6-fluoro-7-(8-methyl-2,3-dihydro-1H-pyrido[2,3-b][1,4]oxazin-7-yl)-N~2~- (2-methyl-2,3,4,5-tetrahydro-1H-2-benzazepin-8-yl)quinazoline-2,5-diamine]	0.0406
Cc1c(-c2cc3nc(Nc4ccc5c(c4)CN(C)CC5)ncc3cc2F)cnc2c1NCCO2 [Compound 1-114, 6-fluoro-7-(8-methyl-2,3-dihydro-1H-pyrido[2,3-b][1,4]oxazin-7-yl)-N-(2-methyl-1,2,3,4-tetrahydroisoquinolin-7-yl)quinazolin-2-amine]	0.0883
COc1nc(C2(C#N)CC2)ccc1Nc1ncc2c(N)c(F)c(-c3cnc4c(c3C)NCCO4)c(Cl)c2n1 [Compound 2-182, (+ or −)-1-(5-{[5-amino-8-chloro-6-fluoro-7-(8-methyl-2,3-dihydro-1H-pyrido[2,3-b][1,4]oxazin-7-yl)quinazolin-2-yl]amino}-6-methoxypyridin-2-yl)cyclopropane-1-carbonitrile]	32.7
COc1cc2c(cc1Nc1ncc3ccc(NCC4CC(=O)N(C)C4)cc3n1)CN(C)CC2 (stereo in doubt) [Compound 3-48, (4S)-4-[({2-[(6-methoxy-2-meth-yl-1,2,3,4-tetrahydroisoquinolin-7-yl)amino]quinazolin-7-yl}-amino)methyl]-1-methylpyrrol-idin-2-one]	531
Cc1c(-c2cc3nc(Nc4ccc(CCC#N)cc4)ncc3c(N)c2F)cnc2c1NCCO2 [Compound 2-116, 3-(4-{[5-amino-6-fluoro-7-(8-methyl-2,3-dihydro-1H-pyrido[2,3-b][1,4]oxazin-7-yl)quinazolin-2-yl]amino}phenyl)propane-nitrile]	0.142
COc1cc2c(cc1Nc1ncc3ccc(NCC4(C)COC4)cc3n1)CN(C)CC2 [Compound 3-62, N~2~-(6-methoxy-2-methyl-1,2,3,4-tetrahydroisoquinolin-7-yl)-N~7-[(3-methyloxetan-3-yl)-methyl]quinazoline-2,7-diamine]	111
COc1cc2c(cc1Nc1ncc3ccc(-c4cnn(CC(C)O)c4)cc3n1)CN(C)CC2 (racemic) [Compound 1-102, (R and S)-1-(4-{2-[(6-methoxy-2-methyl-1,2,3,4-tetrahydroisoquinolin-7-yl)amino]quinazolin-7-yl}-1H-pyrazol-1-yl)propan-2-ol]	22.2
COc1cc2c(cc1Nc1ncc3ccc(-c4cncc(CO)c4)cc3n1)CNCC2 [Compound 1-53, (5-{2-[(6-methoxy-1,2,3,4-tetrahydroisoquinolin-7-yl)amino]quinazolin-7-yl}pyridin-3-yl)methanol]	5.6
COc1cc2c(cc1Nc1ncc3ccc(NC[C@@H]4CCC(=O)N4)cc3n1)CN(C)CC2 [Compound 3-45, (5S)-5-[({2-[(6-methoxy-2-meth-yl-1,2,3,4-tetrahydroisoquinolin-7-yl)amino]quinazolin-7-yl}-amino)methyl]pyrrolidin-2-one]	292
CNC(=O)c1ccc(Nc2ncc3c(N)c(F)c(-c4cnc5c(c4C)NCCO5)c(Cl)c3n2)c(OC)c1 [Compound 2-97, (+ or −)-4-{[5-amino-8-chloro-6-fluoro-7-(8-methyl-2,3-dihydro-1H-pyrido[2,3-b][1,4]oxazin-7-yl)quinazolin-2-yl]amino}-3-methoxy-N-methylbenzamide]	0.679
COc1cc2c(cc1Nc1ncc3ccc(NCC(=O)N4CCOCC4)cc3n1)CN(C)CC2 [Compound 3-64, 2-({2-[(6-methoxy-2-methyl-1,2,3,4-tetrahydroisoquinolin-7-yl)amino]quinazolin-7-yl}-amino)-1-(morpholin-4-yl)ethan-1-one]	115
COc1cc(C2CCN(C)C2=O)ccc1Nc1ncc2c(N)c(F)c(-c3cnc4c(c3C)NCCO4)cc2n1 (single isomer, unassigned) [Compound 2-57, (R or S)-3-(4-{[5-amino-6-fluoro-7-(8-methyl-2,3-dihydro-1H-pyrido[2,3-b][1,4]oxazin-7-ylquinazolin-2-yl]amino}-3-methoxyphenyl)-1-methylpyrrolidin-2-one]	0.905
COc1cc2c(cc1Nc1ncc3ccc(Nc4cc(CO)ccn4)cc3n1)CN(C)CC2 [Compound 3-40, [2-({2-[(6-methoxy-2-methyl-1,2,3,4-tetrahydroisoquinolin-7-yl)amino]quinazolin-7-yl}-amino)pyridin-4-yl]methanol]	0.889
CC(=O)NCc1ccc(Nc2ncc3c(N)c(F)c(-c4cnc5c(c4C)NCCO5)cc3n2)cc1 [Compound 2-30, N-[(4-{[5-amino-6-fluoro-7-(8-methyl-2,3-dihydro-1H-pyrido[2,3-b][1,4]oxazin-7-yl)quinazolin-2-yl]amino}phenyl)methyl] acetamide]	0.0811
